Each structure is given as a SMILES string.

Data set [1] in a line: release of mefenamic acid from intravaginal devices into water. Type of data set: physicochemical. Particulars: 100 ml water, stirred gently, six devices. The source says: The final intra-vaginal devices, namely coupons fixed directly to tampons or coupons fixed to tampons via the sleeve were then compared for their ability to release an active pharmaceutical, in this case mefenamic acid, when placed in an aqueous environment. This enabled functional ‘equivalence’ of the devices to be confirmed. Intravaginal devices constructed by the direct application of coupons to tampons were compared to intravaginal devices constructed using the mesh sleeve. Devices were placed in beakers containing 100 ml water and stirred gently for varying periods of time. The fluid phase was removed brought to a […] with sodium hydroxide and the concentration of mefenamic determined by spectrophotometry.

Data set [2] can be described thus: clinical study: circulating plasma concentrations of mefenamic acid after intravaginal devices. Type of data set: in vivo. Particulars: human volunteers, intravaginal tampon with directly attached coupons. As for the experimental part:
The purpose of the device described here is to administer mefenamic acid via the intravaginal route. In one clinical study, intravaginal devices, using the direct process of attachment of coupons to tampons were prepared to cGMP (Good Manufacturing Procedure); devices were prepared containing 20, 40 or 80 mg per tampon.
These were administered to human volunteers in a study conforming to Good Clinical Procedure and circulating plasma concentrations of mefenamic acid were determined after drawing blood samples.

The mark [3] stands for this setting: 20 mg mefenamic acid per tampon.
Setting [4] is: 40 mg mefenamic acid per tampon.
[5] abbreviates: 80 mg mefenamic acid per tampon.

With `Cc1cccc(Nc2ccccc2C(=O)O)c1C` [mefenamic acid, 2-[2,3-Dimethylphenylamino] benzoid acid], the “mefenamic acid recovered in the aqueous phase (mean)” value was found to be 73.7 mg in data set [1] (devices with coupons attached via the mesh sleeve, 80 mg per sleeve) and 72.8 mg in data set [1] (devices with coupons directly attached to tampons, 80 mg per tampon). Moreover, the “Accumulated dose (0-7)” value in data set [2] (setting [3]) is on record as 44.7; in data set [2] (setting [4]), 197; in data set [2] (setting [5]), 257. In addition, the Max. plasma conc. in data set [2] (setting [3]) amounted to 4.23 ng/mL; in data set [2] (setting [4]), 14.9 ng/mL; in data set [2] (setting [5]) it was 19.5 ng/mL.

Values taken from patent US20070043327A1, “Drug delivery device comprising a mesh sleeve” (priority 2003, published 2007).
